Laboratory results from patent publication US20230295201A1 (Gilead Sciences, Inc., priority 2020, published 2023).
Like-named read-outs stand apart in the source and are kept apart here.

What was measured:
Assay type in all cases: cell-based
[1] = tested on: RSV strain A2; assay: RSV HEp-2 EC50 (infectious cytopathic cell protection assay); details: HEp-2 cells, RSV A2, 4 days, read-out: RSV HEp-2 EC50
Description: Antiviral activity against RSV is determined using an infectious cytopathic cell protection assay in HEp-2 cells. In this assay, compounds inhibiting viral infection and/or replication produce a cytoprotective effect against the virus-induced cell killing that can be quantified using a cell viability reagent. The techniques used here are novel adaptations of methods described in published literature (Chapman et al., Antimicrob Agents Chemother. 2007, 51(9):3346-53.)
HEp-2 cells are obtained from ATCC (Manassas, VI) and maintained in MEM media supplemented with 10% fetal bovine serum and penicillin/streptomycin. Cells are passaged twice a week and kept at subconfluent stage. Commercial stock of RSV strain A2 (Advanced Biotechnologies, Columbia, MD) is titered before compound testing to determine the appropriate dilution of the virus stock that generates desirable cytopathic effect in HEp-2 cells.
For antiviral tests, HEp-2 cells are grown in large cell culture flasks to near confluency but not fully so. The compounds to be tested are prediluted in DMSO in 384-well compound dilution plates, either in an 8 or 40 sample per plate standardized dose response format. 3-fold serial dilution increments of each test compound are prepared in the plates and test samples are transferred via acoustic transfer apparatus (Echo, Labcyte) at 100 nL per well into cell culture assay 384-well plates. Each compound dilution is transferred in single or quadruplicate samples into dry assay plates, which are stored until assay is ready to go. The positive and negative controls are laid out in opposite on ends of the plate in vertical blocks (1 column).
Subsequently, an infectious mixture is prepared using an appropriate dilution of virus stock previously determined by titration with cells at a density of 50,000/ml and 20 µL/well is added to test plates w/compounds via automation (uFlow, Biotek). Each plate includes negative and positive controls (16 replicates each) to create 0% and 100% virus inhibition standards, respectively. Following the infection with RSV, testing plates are incubated for 4 days in a 37° C. cell culture incubator. After the incubation, a cell viability reagent, Cell TiterGlo (Promega, Madison, WI) is added to the assay plates, which are incubated briefly, and a luminescent readout is measured (Envision, Perkin Elmer) in all the assay plates. The RSV-induced cytopathic effect, percentage inhibition, is determined from the levels of remaining cell viability. […] Various potent anti-RSV tool compounds are used as positive controls for antiviral activity.

[2] = tested on: RSV A2; assay: RSV NHBE EC50 (RSV A2 antiviral assay in normal human bronchial epithelial cells); details: NHBE cells, RSV A2, 4 days, read-out: RSV NHBE EC50
Description: Normal human bronchial epithelial (NHBE) cells were purchased from Lonza (Walkersville, MD, Cat #CC-2540) and cultured in Bronchial Epithelial Growth Media (BEGM) (Lonza, Walkersville, MD, Cat #CC-3170). The cells were passaged 1-2 times per week to maintain <80% confluency. The NHBE cells were discarded after 6 passages in culture.
To conduct the RSV A2 antiviral assay, NHBE cells were plated in 96-well plates at a density of 7,500 cells per well in BEGM and allowed to attach overnight at 37° C. Following attachment, 100 μL of cell culture media was removed and 3-fold serially diluted compound was added using a Hewlett-Packard D300 Digital Dispenser. The final concentration of DMSO was normalized to 0.05%. Following compound addition, the NHBE cells were infected by the addition of 100 μL of RSV A2 at a titer of 1×10^4.5 tissue culture infectious doses/mL in BEGM and then incubated at 37° C. for 4 days. […] The mixtures were incubated for 10 minutes at 25° C., and the luminescence signal was quantified on an Envision luminescence plate reader.

[3] = tested on: HRV16; assay: HRV16 HELA EC50 (cytopathic effect in H1-HeLa cells)
Description: H1-HeLa cells, cultured in complete DMEM medium containing 10% heat-inactivated FBS and 1% Penicillin/Streptomycin, were seeded in 96 well plates at 3000 cells/well one day prior to compound dosing and infection. The antiviral activity of each compound was measured in triplicate. Compounds were added directly to the cell cultures in serial 3-fold dilutions using the HP300 digital dispenser (Hewlett Packard, Palo Alto, CA) immediately prior to infection. The plates were transferred to BSL-2 containment and the appropriate dilution of virus stock, previously determined by titration and prepared in cell culture media, was added to test plates containing cells and serially diluted compounds. Each plate included 6 wells of infected untreated cells and 6 wells of uninfected cells that served as 0% and 100% virus inhibition control, respectively. Following the infection, test plates were incubated for 96 h in a tissue culture incubator set to 33° C./5% CO2. Following incubation, the H1-HeLa cells were removed from incubation and allowed to equilibrate to 25° C. Cell viability was determined by removing 100 μL of culture medium and adding 100 μL of Cell-Titer Glo viability reagent. The mixtures were incubated on a shaker for 10 minutes at 25° C., and the luminescence signal was quantified on an Envision luminescence plate reader.

[4] = tested on: DENV2 replicon; assay: DENV-2 Huh-7 Rep EC50 (replicon luminescence); details: Huh-7 replicon cells, 48 hours, read-out: DENV-2 Huh-7 Rep EC50
Description: In 384 well plates (Greiner, Cat #781091), compounds were acoustically transferred at 200 nl per well in a 8 compound (4 replicates) or 40 compound dose response format (3 replicates). For all plates tested, Balapiravir, GS-5734 and NITD008 were included as positive inhibition controls alongside 0% inhibition, DMSO-only negative control wells. Following compound addition, Huh-7 cells containing the DENV2 replicon construct were harvested following standard cell culture procedures and were adjusted to a concentration of 1.25E5 cells/mL in cell culture media composed of cDMEM without genticin. 40 μL of the cell stock was then added to each well for a final cell density of 5,000 cells/well. Cell and compound mixtures were incubated at 37° C./5% CO2 for 48 hours. Prior to harvesting cells, EnduRen Live Cell Substrate (Promega, Cat #E6481) was prepared by suspending 3.4 mg into 100 uL of DMSO to generate a 60 mM stock solution. The stock solution was then diluted 1:200 in pre-warmed cDMEM and 10 uL of this diluted solution was added to each well of the 384 well plates. Plates were then centrifuged at 500 rpm briefly and were placed on a plate shaker for 2 min. Following mixing, plates were incubated at […] for 1.5 hours prior to measuring luminescence on an Envision luminometer.

[5] = 96 h, H1-HeLa cells, 33° C., read-out: HRV16 HELA EC50
[6] = Dengue virus, DENV2, Huh-7, 48 h
[7] = human respiratory syncytial virus, HEp-2, 96 h
[8] = human respiratory syncytial virus, NHBE, 96 h
[9] = human respiratory syncytial virus, 96 h
[10] = H1-HeLa cells, 96 h, 33° C.; read-out: HRV16 HELA EC50

EC50 [1, 9]	EC50 [3, 10]	SMILES	EC50 [1]	EC50 [2]	EC50 [3, 5]	EC50 [4, 6]	EC50 [1, 7]	EC50 [2, 8]	EC50 [4]	EC50 [2, 9]
–	–	C[C@H](NP(=O)(OC[C@@]1(C#N)O[C@@H](c2ccc3c(N)ncnn23)[C@H](O)[C@@H]1O)Oc1ccccc1)C(=O)OC1CCCCCC1 (single isomer, unassigned) [Example 136]	2.77 µM	0.095 µM	0.577 µM	51.1 µM	–	–	–	–
–	–	C[C@@H](NP(=O)(OC[C@@]1(C#N)O[C@@H](c2ccc3c(N)ncnn23)[C@H](O)[C@@H]1O)Oc1ccccc1)C(=O)O[C@@H]1CCN(C(=O)OC(C)(C)C)C1 (stereo partly drawn) [Example 140, (3R)-tert-butyl 3-(((2R)-2-(((((2R,3S,4R,5S)-5-(4-aminopyrrolo[2,1-f][1,2,4]triazin-7-yl)-2-cyano-3,4-dihydroxytetrahydrofuran-2-yl)methoxy)(phenoxy)phosphoryl)amino)propanoyl)oxy)pyrrolidine-1-carboxylate]	–	–	23.3 µM	> 50 µM	8.89 µM	> 5 µM	–	–
–	–	C[C@H](NP(=O)(OC[C@@]1(C#N)O[C@@H](c2ccc3c(N)ncnn23)[C@H](O)[C@@H]1O)Oc1ccccc1)C(=O)OC1CCC(F)(F)CC1 (single isomer, unassigned) [Example 176]	0.161 µM	1.64 µM	0.547 µM	–	–	–	28.6 µM	–
–	–	CCCCCCCC(=O)Nc1ncnn2c([C@@H]3O[C@](C#N)(CO[P@@](=O)(N[C@@H](C)C(=O)OC4CCCCC4)Oc4ccccc4)[C@@H](O)[C@H]3O)ccc12 [Example 212, Cyclohexyl ((S)-(((2R,3S,4R,5S)-2-cyano-3,4-dihydroxy-5-(4-octanamidopyrrolo[2,1-f][1,2,4]triazin-7-yl)tetrahydrofuran-2-yl)methoxy)(phenoxy)phosphoryl)-L-alaninate]	–	–	0.67 µM	9.77 µM	0.133 µM	> 5 µM	–	–
–	–	C[C@H](NP(=O)(OC[C@@]1(C#N)O[C@@H](c2ccc3c(N)ncnn23)[C@H](O)[C@@H]1O)Oc1ccccc1)C(=O)OCCN(C)C (stereo partly drawn) [Example 162, 2-(dimethylamino)ethyl ((((2R,3S,4R,5S)-5-(4-aminopyrrolo[2,1-f][1,2,4]triazin-7-yl)-2-cyano-3,4-dihydroxytetrahydrofuran-2-yl)methoxy)(phenoxy)phosphoryl)-L-alaninate]	–	–	12.8 µM	13.8 µM	6.05 µM	> 5 µM	–	–
–	–	C[C@H](NP(=O)(OC[C@@]1(C#N)O[C@@H](c2ccc3c(N)ncnn23)[C@H](O)[C@@H]1O)Oc1ccccc1)C(=O)O[C@H]1CC[C@H](C)CC1 (mixture of isomers) [Example 142, (2S)-(1r,4S)-4-methylcyclohexyl 2-(((((2R,3S,4R,5S)-5-(4-aminopyrrolo[2,1-f][1,2,4]triazin-7-yl)-2-cyano-3,4-dihydroxytetrahydrofuran-2-yl)methoxy)(phenoxy)phosphoryl)amino)propanoate]	–	–	0.164 µM	12.2 µM	0.251 µM	0.061 µM	–	–
–	–	N#C[C@]1(COP(=O)(N[C@H](C(=O)OCC2CC2)C2CCCCC2)Oc2ccccc2)O[C@@H](c2ccc3c(N)ncnn23)[C@H](O)[C@@H]1O (stereo partly drawn) [Example 121, (2S)-cyclopropylmethyl 2-(((((2R,3S,4R,5S)-5-(4-aminopyrrolo[2,1-f][1,2,4]triazin-7-yl)-2-cyano-3,4-dihydroxytetrahydrofuran-2-yl)methoxy)(phenoxy)phosphoryl)amino)-2-cyclohexylacetate]	–	–	> 100 µM	56.7 µM	> 100 µM	> 5 µM	–	–
–	–	C[C@H](NP(=O)(OC[C@@]1(C#N)O[C@@H](c2ccc3c(N)ncnn23)[C@H](O)[C@@H]1O)Oc1ccccc1)C(=O)OC1COC1 (stereo partly drawn) [Example 44, oxetan-3-yl ((((2R,3S,4R,5S)-5-(4-aminopyrrolo[2,1-f][1,2,4]triazin-7-yl)-2-cyano-3,4-dihydroxytetrahydrofuran-2-yl)methoxy)(phenoxy)phosphoryl)-L-alaninate]	–	–	4.26 µM	–	0.998 µM	1.8 µM	–	–
21.5 µM	> 50 µM	CSCCOP(=O)(N[C@@H](C)C(=O)OC(C)C)OC[C@@]1(C#N)O[C@@H](c2ccc3c(N)ncnn23)[C@H](O)[C@@H]1O (stereo partly drawn) [Example 40, isopropyl ((((2R,3S,4R,5S)-5-(4-aminopyrrolo[2,1-f][1,2,4]triazin-7-yl)-2-cyano-3,4-dihydroxytetrahydrofuran-2-yl)methoxy)(2-(methylthio)ethoxy)phosphoryl)-L-alaninate]	–	–	–	–	–	–	–	≥ 5 µM
–	–	C[C@H](N[P@@](=O)(OC[C@@]1(C#N)O[C@@H](c2ccc3c(N)ncnn23)[C@H](O)[C@@H]1O)Oc1ccccc1)C(=O)OC1CCCCC1 (single isomer, unassigned) [Example 5]	–	–	0.654 µM	–	2.73 µM	0.63 µM	–	–
> 5 µM	> 5 µM	CCCCCCCCCCCCCCCC(=O)OCC(COP(=O)(O)OC[C@@]1(C#N)O[C@@H](c2ccc3c(N)ncnn23)[C@H](O)[C@@H]1O)OC(=O)CCCCCCCCCCCCCCC (stereo partly drawn) [Example 152, 3-(((((2R,3S,4R,5S)-5-(4-aminopyrrolo[2,1-f][1,2,4]triazin-7-yl)-2-cyano-3,4-dihydroxytetrahydrofuran-2-yl)methoxy)(hydroxy)phosphoryl)oxy)propane-1,2-diyl dipalmitate]	–	–	–	–	–	–	–	1.78 µM
